Reference: US9446116B2, “Peptide sequences and compositions” (priority 2006, dated 2016)

Columns and labels:
[1] = test system: Influenza A/PR/8/34; type: in vivo, C57BL/6-Tg(HLA-A2.1)1Enge/J mice
[2] = test system: primary splenocytes; type: cell-based, C57BL/6-Tg(HLA-A2.1)1Enge/J mice; conditions: stimulation with P6 (data not shown)

Row | Substance | succumbed to infection (mortality) ([1]; CD8 depletion (anti-CD8 sera days 19 and 22), […], FIG. 3A) [%] | mortality rate ([1]; absence of CD8 depletion (irrelevant sera), FIG. 3B) [%] | IL-4 production [2]
1 | NRP-v: Lysozyme (Sigma) denatured by boiling, used as the control non relevant preparation | 100 | 100 | –
2 | IIGILHLILWILDRLFFKCIYRLF [P6] | – | – | failure of stimulation with P6 to induce any IL-4 production
